The source of these data is patent US9239329B2 (priority 2006, dated 2016).

Assay [1] is classed as binding. The note with it: 2.0 μM protein in PBS-T, 150 μl/min for 5 min, room temperature; FIG. 3.
Assay [2] concerns A/Fukuoka/C29/85(H3N2). In kind it is binding, influenza virus. The note with it: virus 100 HAU in PBS, 150 μl/min for 5 min, room temperature.
Assay [3] deals with A/Guizhou/54/89(H3N2). In kind it is binding, influenza virus. The following applies: virus 100 HAU in PBS, 150 μl/min for 5 min, room temperature.

In the case of concanavalin A, in assay [1], the “interaction of protein with immobilized sugar chains (increase in brightness at spot positions, SPR)” value is given as “interacted with the sugar chains immobilized at the spot positions”.

For wheat germ agglutinin, the “interaction of protein with immobilized sugar chains (increase in brightness at spot positions, SPR)” value in assay [1] is given as “interacted with the sugar chains immobilized at the spot positions”.

Consider bovine serum albumin, for which, in assay [1], the “interaction of protein with immobilized sugar chains (increase in brightness at spot positions, SPR)” value is given as “increase in brightness at none of the spot positions”.

Consider Neu5Acα2-6Galβ1-4Glc, for which the “interaction between sugar chain and influenza virus (SPR signal intensity)” value in assay [2] is reported as “strong interaction”; in assay [3], “limited interaction”.
